Laboratory results published in patent US4853467A, “Nitrogen containing derivatives of epipodophyllotoxin glucosides” (Bristol-Myers Company, priority 1987, dated 1989).
≈ marks a conversion by molar mass, not a printed value.

Columns and labels:
SW900 human lung = assay: In vitro cytotoxicity assay, SW900 human lung; type: cell-based; details: two values per compound, four-fold serial dilution; for IC50: Homo sapiens, SW900, SW900 human lung; for In vitro cytotoxicity IC50, SW900: SW900 human lung
Method: (§1) The in vitro cytotoxicity assay involved growing various mammalian tumor cells, including human tumor cells, on microtitre plates employing established tissue culture methods. The concentration of each compound required to inhibit cell growth by 50% (IC50) was then determined by a four-fold serial dilution technique. The validity of the method has been supported by a report published in the "Proceedings of the American Association for Cancer Research", 1984, 25:1891 (Abst. No. 328). Tumor cells of the following types were employed for each compound tested: B16-F10 murine melanoma; Moser human colon; SW900 human lung and three human colon tumor cell lines namely HCT-116, HCT-VM, and HCT-VP, the latter two being resistant to teniposide (VM) and etoposide (VP), respectively. IC50 values less than 500 μg/ml are a positive indicator of antitumor activity. Table II presents IC50 values of various compounds of the present invention against the aforementioned cell lines.

P388 murine leukemia = assay: P388 Leukemia, antitumor activity against murine P388 leukemia; type: in vivo, murine (female CDF1 mice); details: i.p. on days 5 and 8; 10^6 P388 cells i.p.; maximum effect over doses; >=125 considered significant; etoposide values in parentheses are positive control in same experiment
Method: Female CDF1 mice were implanted intraperitoneally with a tumor inoculum of 10^6 ascites cells of P388 murine leukemia and treated with various doses of a test compound; four mice were used for each dose level and ten were used as saline-treated control. The compounds were administered by intraperitoneal injection on days 5 and 8 (day 1 being the day of tumor implantation). Antitumor activity was expressed as % T/C which is the ratio of the median survival time (MST) of drug-treated group to the MST of saline-treated control group. A compound showing a % T/C value of 125 or greater is generally considered to have significant antitumor activity in the P388 test. The experiment lasted 31 days at the end of which time the number of survivors was noted. Table I presents the results of the above-described evaluation; only the maximum % T/C and the dose showing the maximum effect are reported.

HCT/VM34 = assay: In vitro cytotoxicity assay, HCT/VM34 teniposide-resistant human colon tumor; type: cell-based; details: HCT/VM34, resistant to teniposide, two values per compound, four-fold serial dilution; for IC50: Homo sapiens
Method: as §1

B16-F10 murine melanoma = assay: In vitro cytotoxicity assay, B16-F10 murine melanoma; type: cell-based; details: two values per compound, four-fold serial dilution; for In vitro cytotoxicity IC50, B-16-F10: B16-F10 murine melanoma; for IC50: Mus musculus, B16-F10, B16-F10 murine melanoma, read-out: In vitro cytotoxicity IC50, B-16-F10
Method: as §1

HCT-116 = assay: In vitro cytotoxicity assay, HCT-116 human colon tumor; type: cell-based; details: two values per compound, four-fold serial dilution; for In vitro cytotoxicity IC50, HCT-116: HCT-116 human colon; for IC50: Homo sapiens, HCT-116, HCT-116 human colon
Method: as §1

Moser human colon = assay: In vitro cytotoxicity assay, Moser human colon; type: cell-based; details: two values per compound, four-fold serial dilution; for IC50: Homo sapiens
Method: as §1

HCT/VP35 = assay: In vitro cytotoxicity assay, HCT/VP35 etoposide-resistant human colon tumor; type: cell-based; details: two values per compound, four-fold serial dilution; for In vitro cytotoxicity IC50, HCT/VP35: HCT/VP35, resistant to etoposide; for IC50: Homo sapiens, HCT/VP35, HCT/VP35, resistant to etoposide
Method: as §1

| SMILES | IC50 (SW900 human lung) | In vitro cytotoxicity IC50, SW900 (SW900 human lung) | Max % T/C (ratio of median survival time of drug-treated group to saline-treated control group) (P388 murine leukemia) | In vitro cytotoxicity IC50, HCT/VM34 (HCT/VM34) | IC50 (HCT/VM34) | In vitro cytotoxicity IC50, B-16-F10 (B16-F10 murine melanoma) | IC50 (B16-F10 murine melanoma) | In vitro cytotoxicity IC50, HCT-116 (HCT-116) | IC50 (HCT-116) | IC50 (Moser human colon) | In vitro cytotoxicity IC50, MOSER (Moser human colon) | In vitro cytotoxicity IC50, HCT/VP35 (HCT/VP35) | IC50 (HCT/VP35) |
| --- | --- | --- | --- | --- | --- | --- | --- | --- | --- | --- | --- | --- | --- |
| COc1cc([C@@H]2c3cc4c(cc3[C@@H](O[C@@H]3O[C@@H]5CO[C@@H](C)O[C@H]5[C@H](O)[C@H]3O)[C@H]3COC(=O)[C@H]23)OCO4)cc(N=Cc2ccncc2)c1O [Example 19, 3'-Desmethoxy-3'-[(4-pyridyl)methylene]amino etoposide] | 42 µg/mL (≈ 63.4 µM) | 28 µg/mL | 230% | 19.3 µg/mL | 21 µg/mL (≈ 31.7 µM) | 16.4 µg/mL | 16.9 µg/mL (≈ 25.5 µM) | 12.7 µg/mL | 13.9 µg/mL (≈ 21 µM) | 38 µg/mL (≈ 57.3 µM) | 32 µg/mL |  |  |
| C[C@@H]1OC[C@H]2O[C@@H](O[C@@H]3c4cc5c(cc4[C@@H](C4=CC(=O)C(=O)C(NC(=O)NCCCl)=C4)[C@H]4C(=O)OC[C@@H]43)OCO5)[C@H](O)[C@@H](O)[C@@H]2O1 [Example 29, 5'-Desmethoxy-5'-[[(2-chloroethyl)amino]carbonyl]amino etoposide 3',4'-ortho-quinone] | > 188 µg/mL |  | 135% | 53 µg/mL | 55 µg/mL (≈ 83 µM) | 38 µg/mL | 39 µg/mL (≈ 58.8 µM) | 46 µg/mL | 53 µg/mL (≈ 79.9 µM) | 71 µg/mL (≈ 107 µM) | 77 µg/mL | 79 µg/mL | 77 µg/mL (≈ 116 µM) |
| COc1cc([C@@H]2c3cc4c(cc3[C@@H](O[C@@H]3O[C@@H]5CO[C@@H](C)O[C@H]5[C@H](O)[C@H]3O)[C@H]3COC(=O)[C@H]23)OCO4)cc(NS(C)(=O)=O)c1O [Example 12, 3'-Desmethoxy-3'-methanesulfonamido etoposide] | > 188 µg/mL |  | 150% |  |  | 54 µg/mL | 61 µg/mL (≈ 93.6 µM) | 62 µg/mL | 54 µg/mL (≈ 82.9 µM) |  |  | 132 µg/mL | 88 µg/mL (≈ 135 µM) |
| CNc1cc([C@@H]2c3cc4c(cc3[C@@H](O[C@@H]3O[C@@H]5CO[C@@H](C)O[C@H]5[C@H](O)[C@H]3O)[C@H]3COC(=O)[C@H]23)OCO4)cc(OC)c1O [Example 4, 3'-Desmethoxy-3'-methylamine etoposide] | 63 µg/mL (≈ 107 µM) |  | 170% | 33 µg/mL | 23 µg/mL (≈ 39.1 µM) | 17.9 µg/mL | 13.9 µg/mL (≈ 23.7 µM) | 15.7 µg/mL | 16.2 µg/mL (≈ 27.6 µM) | 56 µg/mL (≈ 95.3 µM) | 49 µg/mL | 47 µg/mL | 40 µg/mL (≈ 68.1 µM) |
| COc1cc([C@@H]2c3cc4c(cc3[C@@H](O[C@@H]3O[C@@H]5CO[C@@H](C)O[C@H]5[C@H](O)[C@H]3O)[C@H]3COC(=O)[C@H]23)OCO4)cc(N=Cc2cc(OC)c(OC)c(OC)c2)c1O [Example 21, 3'-Desmethoxy-3'-[[(3,4,5-trimethoxy)phenyl]methylene]amino etoposide] |  |  | 225% | 10.6 µg/mL | 14 µg/mL (≈ 18.6 µM) | 4.3 µg/mL | 5.3 µg/mL (≈ 7.05 µM) |  |  | 25 µg/mL (≈ 33.3 µM) | 27 µg/mL | 15.6 µg/mL | 26 µg/mL (≈ 34.6 µM) |
| CC(=O)NC1=CC([C@@H]2c3cc4c(cc3[C@@H](O[C@@H]3O[C@@H]5CO[C@@H](C)O[C@H]5[C@H](O)[C@H]3O)[C@H]3COC(=O)[C@@H]32)OCO4)=CC(=O)C1=O [Example 28, 5'-Desmethoxy-5'-acetylamino etoposide 3',4'-orthoquinone] |  |  | 125% | 64 µg/mL | 58 µg/mL (≈ 96.7 µM) | 81 µg/mL | 72 µg/mL (≈ 120 µM) | 68 µg/mL | 66 µg/mL (≈ 110 µM) | 87 µg/mL (≈ 145 µM) | 71 µg/mL | 70 µg/mL | 84 µg/mL (≈ 140 µM) |
| COc1cc([C@@H]2c3cc4c(cc3[C@@H](O[C@@H]3O[C@@H]5CO[C@@H](C)O[C@H]5[C@H](O)[C@H]3O)[C@H]3COC(=O)[C@H]23)OCO4)cc(N=Cc2ccco2)c1O [Example 18, 3'-Desmethoxy-3'-[(2-furyl)methylene]amino etoposide] | 42 µg/mL (≈ 64.5 µM) | 40 µg/mL | 200% |  |  | 15.3 µg/mL | 12.5 µg/mL (≈ 19.2 µM) | 18.4 µg/mL | 29 µg/mL (≈ 44.5 µM) | 40 µg/mL (≈ 61.4 µM) | 37 µg/mL |  |  |
| COc1cc([C@@H]2c3cc4c(cc3[C@@H](O[C@@H]3O[C@@H]5CO[C@@H](C)O[C@H]5[C@H](O)[C@H]3O)[C@H]3COC(=O)[C@H]23)OCO4)cc2ncoc12 [Example 27, Etoposide benzoxazole derivative] |  |  | 165% | 10.6 µg/mL | 14 µg/mL (≈ 24 µM) | 4.3 µg/mL | 5.3 µg/mL (≈ 9.08 µM) |  |  | 25 µg/mL (≈ 42.8 µM) | 27 µg/mL | 15.6 µg/mL | 26 µg/mL (≈ 44.6 µM) |
| COc1cc([C@@H]2c3cc4c(cc3[C@@H](O[C@@H]3O[C@@H]5CO[C@@H](C)O[C@H]5[C@H](O)[C@H]3O)[C@H]3COC(=O)[C@H]23)OCO4)cc([N+](=O)[O-])c1O [Example 24, 3'-Desmethoxy-3'-nitro etoposide] | 66 µg/mL (≈ 109 µM) | 90 µg/mL | > 140% | 82 µg/mL | 56 µg/mL (≈ 92.8 µM) | 50 µg/mL | 41 µg/mL (≈ 67.9 µM) | 53 µg/mL | 43 µg/mL (≈ 71.2 µM) | 92 µg/mL (≈ 152 µM) | 84 µg/mL |  |  |
